Test [1] concerns the target T1, CKB Creatine kinase B-type (Homo sapiens, UniProt P12277).
T1 construct: 200 μL of lysate containing 5 mg/ml proteome was treated with 2 μL of 100× compound stock; endogenous in cells
Nature of the test: Cysteine liganding, probe competition. It is filed as binding. In outline:
(§1)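 Steps: sonicate cells in cold PBS; treat 5 mg/ml lysate with compound (25° C, 1 hr); add desthiobiotin iodoacetamide probe from a 10 mM stock (25° C, 1 hr); precipitate, reduce, alkylate, digest with trypsin; capture labelled peptides on streptavidin for analysis.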

Test [2] has as its target T2, HERC4 Probable E3 ubiquitin-protein ligase HERC4 (Homo sapiens, UniProt Q5GLZ8).
T2 construct: Cells were resuspended in cold PBS on ice and sonicated with a probe sonicator to achieve lysis; endogenous in cells
T2 sequence (Q5GLZ8 1-1057): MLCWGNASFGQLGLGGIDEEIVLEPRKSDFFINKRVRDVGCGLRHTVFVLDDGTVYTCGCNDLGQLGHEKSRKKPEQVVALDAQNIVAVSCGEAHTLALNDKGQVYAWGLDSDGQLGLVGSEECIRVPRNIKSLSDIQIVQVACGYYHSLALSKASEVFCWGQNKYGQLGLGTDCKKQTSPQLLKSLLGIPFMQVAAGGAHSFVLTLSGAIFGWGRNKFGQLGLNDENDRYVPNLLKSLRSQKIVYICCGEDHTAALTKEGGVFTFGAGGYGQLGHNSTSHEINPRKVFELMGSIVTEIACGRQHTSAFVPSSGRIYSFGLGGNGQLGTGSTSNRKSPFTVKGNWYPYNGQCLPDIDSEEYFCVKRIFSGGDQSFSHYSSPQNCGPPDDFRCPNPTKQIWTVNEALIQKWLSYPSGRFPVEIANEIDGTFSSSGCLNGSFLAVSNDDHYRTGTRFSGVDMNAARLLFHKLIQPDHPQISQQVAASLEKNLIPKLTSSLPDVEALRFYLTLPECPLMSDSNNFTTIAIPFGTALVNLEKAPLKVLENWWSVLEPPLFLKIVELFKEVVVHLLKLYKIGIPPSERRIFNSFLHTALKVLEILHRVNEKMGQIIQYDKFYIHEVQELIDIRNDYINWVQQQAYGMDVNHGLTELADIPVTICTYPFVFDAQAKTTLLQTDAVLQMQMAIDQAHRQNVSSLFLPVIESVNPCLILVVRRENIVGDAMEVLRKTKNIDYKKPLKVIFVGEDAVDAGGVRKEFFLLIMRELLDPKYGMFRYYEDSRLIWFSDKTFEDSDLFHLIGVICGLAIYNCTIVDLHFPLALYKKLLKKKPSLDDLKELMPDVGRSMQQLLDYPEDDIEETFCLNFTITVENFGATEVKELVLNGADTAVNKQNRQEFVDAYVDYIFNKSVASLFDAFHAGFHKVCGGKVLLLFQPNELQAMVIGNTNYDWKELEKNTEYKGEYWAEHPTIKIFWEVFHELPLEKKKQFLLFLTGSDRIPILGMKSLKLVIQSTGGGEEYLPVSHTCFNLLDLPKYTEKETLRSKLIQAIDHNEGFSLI
Nature of the test: Cysteine liganding, probe competition. It is filed as binding. In short, it runs like this: as §1

T1 sequence (P12277 whole entry): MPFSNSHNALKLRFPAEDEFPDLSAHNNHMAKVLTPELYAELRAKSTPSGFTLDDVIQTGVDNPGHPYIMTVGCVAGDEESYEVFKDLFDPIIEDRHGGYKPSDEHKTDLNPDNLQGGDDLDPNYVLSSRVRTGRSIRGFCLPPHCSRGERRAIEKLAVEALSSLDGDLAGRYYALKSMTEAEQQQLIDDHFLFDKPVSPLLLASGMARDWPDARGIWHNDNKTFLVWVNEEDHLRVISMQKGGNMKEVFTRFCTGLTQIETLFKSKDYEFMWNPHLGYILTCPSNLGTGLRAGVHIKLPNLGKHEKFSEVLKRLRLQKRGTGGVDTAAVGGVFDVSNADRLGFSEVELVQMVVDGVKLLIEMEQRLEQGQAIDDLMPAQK

On to `COc1ccc2c(c1)CCCN2C(=O)CCl` [KB02], for which the Liganded entry in test [1] (CKB Res# 283, uniprot P12277) is listed as “YES”; in test [2] (HERC4 Res# 60, uniprot Q5GLZ8) it was “YES”.
For the compound `O=C(CCl)Nc1cc(C(F)(F)F)cc(C(F)(F)F)c1` [KBO3], in test [1] (uniprot P12277), the “100 Max” value was 23.24, the 100 ave was determined as 15.155 and the 500 ave was 71.73. Also, the “500 Max” value in test [1] (uniprot P12277, in % (unit assumed)) is 71.73. Also, in test [2] (uniprot Q5GLZ8), the “100 Max” value worked out at 42.0, the 100 ave came out at 15.4 and the 500 ave was 58.8. This compound returned a 500 Max in test [2] (uniprot Q5GLZ8, unit assumed) of 62.3%.

The values are drawn from patent US20200239530A1, “COMPOUNDS AND METHODS OF MODULATING PROTEIN DEGRADATION” (Vividion Therapeutics, Inc., priority 2017, published 2020).
